Laboratory results published in paper PMC7672424 (Nucleic Acids Research, 2020).

Legend:
[1] = test system: FAM-TTA45-TAMRA (DNA, G4) GGGTTAGGGTTAGGGTTAGGGTTAGGGTTAGGGTTAGGGTTAGGG; test: FRET melting; settings: 100 mM K+ (KCl) plus 10 mM potassium phosphate, pH 7.0, 0.5 µM DNA
[2] = test system: TTA45; test: CD melting, DNA stabilization; format: binding, human; settings: 5 µM DNA, 20 µM compound, 10 mM Tris-HCl, 50 mM KCl, pH 7.4
Description: Compounds Structures IC /µM m

[3] = test system: TTA (DNA, G4) GGGTTAGGGTTAGGGTTAGGG; test: CD melting; settings: 50 mM K+; 10 mM Tris-HCl pH 7.4; 5 µM DNA, 20 µM compound
[4] = test system: TTA; settings: CD melting; 5 µM DNA, 20 µM compound; 10 mM Tris-HCl, 50 mM KCl, pH 7.4
Procedure: CD studies were performed on a Chirascan circular dichroism spectrophotometer (Jasco, Easton, MD, USA). A quartz cuvette with a 1 mm path length was used to record the spectra over a wavelength range of 220–320 nm with a 1 nm bandwidth. All the samples were prepared in buffer containing 10 mM Tris–HCl pH 7.4, 100 mM KCl. To ensure the concentrations of G-quadruplex units to be 20 μM, multiple G-quadruplexes forming oligonucleotides with different concentrations were used (TTA (G1) 20 μM, TTA45 (G2) 10 μM, TTA69 (G3) 6.67 μM, TTA93 (G4) 5 μM, TTA117 (G5) 4 μM, TTA141 (G6) 3.33 μM). The DNA samples were heated at 95°C for 5 min and cooled down slowly to room temperature. […] Melting curves were measured at 295 nm and the range of temperature was 4–95°C.
a Melting temperature (T ) of 5 µM DNA samples with and without 20 µM BMPQ-1 analogs in 10 mM Tris-HCl
buffer (50 mM KCl, pH 7.4) was determined by circular dichroism spectroscopy, and ΔTm/°C were derived by

[5] = test system: TTA45; test: FRET melting assay, stabilization of TTA45; format: binding, human; settings: for ΔTm/°C, TTA45 stabilization by FRET (Table S3) / ΔTm/°C, stabilization of TTA45 by FRET (Table S2): 0.5 µM TTA45, 10 mM K2HPO4/KH2PO4, 100 mM KCl, pH 7.0; for ΔTm/°C, TTA45 stabilization by FRET (Table S3): 20 µM compounds; for stabilization of TTA45 (in words, SAR): FRET assay
Procedure: Based on the conventional G-quadruplex ligand design ([46]), ∼400 compounds were selected from Chinese National Compound library of Peking University (PKU-CNCL). These compounds were evaluated for their ability to bind to TTA45 by Fluorescence Resonance Energy Transfer (FRET) assay (Supplementary Tables S1 and S2) ([47]). […] Compounds 21-38 were purchased to study their binding with TTA45 by FRET (Supplementary Table S3). […] page 4: Table S2. Stabilization of TTA45 as determined by FRET assays (continued). Compounds Structures ΔTm/°C Compounds Structures ΔTm/°C 23 10.3 25 14.6 […] OH 24 […] KCl, pH 7.0) was determined by FRET procedure, and Tm/°C were derived by their difference. The concentration of compounds 21-26 were 20 μM , and other compounds were 50 μM. FRET assay was carried out on the Real-Time PCR 3.2 machine (Analytik Jena, Germany). The total reaction volume was 20 μL with 0.5 μM of oligonucleotide labelled with FAM at the 3' end and TAMRA at 5' end in 10 mM K2HPO4/KH2PO4 (pH 7.0) containing 100 mM KCl. […] Then compounds with various concentrations were added into the DNA samples.

[6] = test system: TTA45 (DNA, G4) GGGTTAGGGTTAGGGTTAGGGTTAGGGTTAGGGTTAGGGTTAGGG; test: CD melting; settings: 50 mM K+; 10 mM Tris-HCl pH 7.4; 5 µM DNA, 20 µM compound
[7] = test system: A549; test: Cell cytotoxicity assay (CCK8); format: cell-based, human; settings: CCK8, 48 h treatment
Procedure: (§1) The cell growth effect of BMPQ-1 against different cell lines were tested via measuring the quantity of living cells using the Cell Counting Kit-8 (CCK8) (DOJINDO, Japan) according to the instruction. Cells were seeded in a 96-well plate (5 × 10^3 cells/well) and grown for 24 h for attachment. Then the cells were treated with various concentrations of BMPQ-1 and incubated at 37°C with 5% CO2 for 48 h. After incubation, the old medium was discarded followed by adding fresh medium containing 10% FBS in DMEM. Then 100 μl CCK-8 (10% in grow medium) was added into each well, and the cells were further incubated for 1 h. The optical density (OD) was detected at 450 nm by an automated microplate reader (Bio-Rad). The IC50 values were derived from the curves of the mean percentage of survival against the drug concentration. All the experiments were performed in triplicate.
(§2) A Cell Counting Kit-8 (CCK8) (DOJINDO, Japan) was employed to evaluate the cytotoxicity of BMPQ-1 on human alveolar basal epithelial cancer cell line (A549), human hepatocellular carcinoma cancer cell line (HepG2), human gastric cancer cell line (MGC-803), human colon adenocarcinoma (HT29), human normal liver Cells (HL-7702).

[8] = test system: TTA45 (DNA, G4) GGGTTAGGGTTAGGGTTAGGGTTAGGGTTAGGGTTAGGGTTAGGG; test: CD melting; settings: 50 mM K+ (KCl); 10 mM Tris-HCl pH 7.4; 20 µM compound, 5 µM DNA
[9] = test system: TTA (DNA, G4) GGGTTAGGGTTAGGGTTAGGG; test: CD melting; settings: 50 mM K+ (KCl); 10 mM Tris-HCl pH 7.4; 20 µM compound, 5 µM DNA
[10] = test system: FAM-TTA45-TAMRA (DNA, G4) GGGTTAGGGTTAGGGTTAGGGTTAGGGTTAGGGTTAGGGTTAGGG; test: FRET melting; settings: 100 mM K+ (KCl) plus potassium phosphate; 10 mM K2HPO4/KH2PO4 pH 7.0; 0.5 µM DNA, 20 µM compound
[11] = test system: MGC-803; test: Cell cytotoxicity assay (CCK8); format: cell-based, human; settings: CCK8, 48 h treatment
Procedure: as §1, §2

[12] = test system: HepG2; test: Cell cytotoxicity assay (CCK8); format: cell-based, human; settings: CCK8, 48 h treatment
Procedure: as §1, §2

[13] = test system: HT29; test: Cell cytotoxicity assay (CCK8); format: cell-based, human; settings: CCK8, 48 h treatment
Procedure: as §1, §2

C(=N\Nc1nnc2c(n1)[nH]c1ccccc12)/c1c2ccccc2cc2ccccc12
ΔTm ([1]; 50 µM compound): 1.54 °C

CCCNC(=O)Cn1nc(-c2ccc(CC)cc2)c2cnc3cc4c(cc3c21)OCCO4
ΔTm ([1]; 50 µM compound): 1.12 °C

CCOc1ccc2c(c1)c1nnc(-c3ccccc3)c-1cn2-c1ccc(Cl)cc1
ΔTm ([1]; 20 µM compound): 0.98 ± 0.69 °C

CN(Cc1ccc2c(c1)OCO2)C(=O)c1nn(C)c2c1CN(C(=O)C1=NOC(c3cccs3)C1)CC2 (centres unmarked)
ΔTm ([1]; 50 µM compound): 0.70 °C

COc1cc2c(-c3ccccc3[N+](=O)[O-])nc3c(c(-c4ccccc4)nn3-c3ccccc3)c2cc1OC
ΔTm ([1]; 50 µM compound): 3.85 °C

COc1ccc2c(c1)c1nnc(-c3ccc(F)cc3)c-1cn2Cc1ccccc1
ΔTm ([1]; 20 µM compound): 8.38 ± 1.73 °C

Cc1cc(C)n(-c2nnc3c4ccccc4n(CC(=O)NCCc4nc5ccccc5[nH]4)c3n2)n1
ΔTm ([1]; 50 µM compound): 2.17 °C

Cc1ccc2c(c1)c1nnc(-c3ccc(F)cc3)c-1cn2Cc1ccccc1
ΔTm ([1]; 20 µM compound): 6.43 ± 0.70 °C

Clc1ccc(-n2cc3c(-c4ccccc4)nnc-3c3ccccc32)cc1
ΔTm ([1]; 20 µM compound): 2.54 ± 0.16 °C

Oc1ccccc1/C=N/Nc1nnc2c3ccccc3n(Cc3ccccc3)c2n1
ΔTm ([1]; 50 µM compound): 1.53 °C

c1cc2c(cc1Cn1cc3c(-c4ccc5c(c4)OCO5)nnc-3c3cc4c(cc31)OCO4)OCO2
ΔTm ([1]; 20 µM compound): 11.56 ± 0.36 °C

FC(F)(F)c1ccc(Cn2cc3c(-c4ccc5c(c4)OCO5)nnc-3c3cc4c(cc32)OCO4)cc1 [BMPQ-2]
ΔTm (°C) TTA45 [2]: 7.0 °C
ΔTm [3]: 2.3 °C
ΔTm ([1]; 20 µM compound): 12.59 ± 0.54 °C
ΔTm (°C) TTA [4]: 2.3 °C
ΔTm/°C, TTA45 stabilization by FRET (Table S3) [5]: 12.59 ± 0.54 °C
ΔTm/°C, stabilization of TTA45 by FRET (Table S2) ([5]; compounds 21-26 20 µM): 12.6 °C
ΔTm [6]: 7.0 °C
IC50 [7]: 1.99 ± 0.04 µM

Cc1ccc(Cn2cc3c(-c4ccc5c(c4)OCO5)nnc-3c3ccccc32)cc1 [BMPQ-3]
ΔTm [8]: 5.1 °C
ΔTm (°C) TTA45 [2]: 5.1 °C
ΔTm [9]: 1.1 °C
ΔTm ([1]; 20 µM compound): 10.28 ± 0.15 °C
ΔTm (°C) TTA [4]: 1.1 °C
ΔTm/°C, TTA45 stabilization by FRET (Table S3) [5]: 10.28 ± 0.15 °C
ΔTm/°C, stabilization of TTA45 by FRET (Table S2) ([5]; compounds 21-26 20 µM): 10.3 °C
IC50 [7]: > 32 µM

OCCn1cc2c(-c3ccc4c(c3)OCO4)nnc-2c2cc3c(cc21)OCO3 [BMPQ-4]
ΔTm [8]: 4.9 °C
ΔTm (°C) TTA45 [2]: 4.9 °C
ΔTm [9]: 2.3 °C
ΔTm ([1]; 20 µM compound): 7.92 ± 0.12 °C
ΔTm (°C) TTA [4]: 2.3 °C
ΔTm/°C, TTA45 stabilization by FRET (Table S3) [5]: 7.92 ± 0.12 °C
ΔTm/°C, stabilization of TTA45 by FRET (Table S2) ([5]; compounds 21-26 20 µM): 7.9 °C
IC50 [7]: > 32 µM

COc1ccc(-c2nnc3c4cc5c(cc4n(Cc4ccccc4)cc2-3)OCCO5)cc1OC [BMPQ-5]
ΔTm [8]: 4.6 °C
ΔTm (°C) TTA45 [2]: 4.6 °C
ΔTm [9]: 4.3 °C
ΔTm (°C) TTA [4]: 4.3 °C
ΔTm/°C, TTA45 stabilization by FRET (Table S3) [5]: 14.62 ± 0.46 °C
ΔTm/°C, stabilization of TTA45 by FRET (Table S2) ([5]; compounds 21-26 20 µM): 14.6 °C
IC50 [7]: 5.39 ± 0.46 µM
ΔTm [10]: 14.62 ± 0.46 °C

COc1ccc(-c2nnc3c4cc5c(cc4n(Cc4ccccc4)cc2-3)OCO5)cc1 [BMPQ-6]
ΔTm (°C) TTA45 [2]: 3.5 °C
ΔTm [3]: 1.0 °C
ΔTm ([1]; 20 µM compound): 11.68 ± 0.53 °C
ΔTm (°C) TTA [4]: 1.0 °C
ΔTm/°C, TTA45 stabilization by FRET (Table S3) [5]: 11.68 ± 0.53 °C
ΔTm/°C, stabilization of TTA45 by FRET (Table S2) ([5]; compounds 21-26 20 µM): 11.7 °C
ΔTm [6]: 3.5 °C
IC50 [7]: 2.49 ± 0.03 µM

CN(C)c1ccc(Nc2c3ccc(NC(=O)CCN4CCCC4)cc3nc3cc(NC(=O)CCN4CCCC4)ccc23)cc1 [BRACO-19, reference compound]
IC50 [11]: 7.07 ± 0.89 µM
IC50 [12]: 6.25 ± 0.8 µM
IC50 [13]: 14.2 ± 1.78 µM
IC50 [7]: 6.71 ± 0.45 µM

CN1CCN(CCCSc2nnc3c(n2)[nH]c2ccccc23)CC1 [Compound 3]
ΔTm ([1]; 50 µM compound): 9.04 °C
ΔTm/°C, stabilization of TTA45 by FRET (Table S2) ([5]; compounds 50 µM): 9.04 °C

Oc1ccccc1C=NNc1nnc2c3ccccc3n(Cc3ccccc3)c2n1 [Compound 5]
ΔTm/°C, stabilization of TTA45 by FRET (Table S2) ([5]; compounds 50 µM): 1.53 °C

CCC(Sc1nc2cc3c(cc2c(=O)n1Cc1ccc(C(=O)NCc2ccc4c(c2)OCO4)cc1)OCO3)C(=O)N1CCOCC1 (centres unmarked) [Compound 12]
ΔTm ([1]; 50 µM compound): 5.11 °C
ΔTm/°C, stabilization of TTA45 by FRET (Table S2) ([5]; compounds 50 µM): 5.11 °C

Cc1ccc(Cn2cc(C(=O)c3ccc4c(c3)OCO4)c(=O)c3cc4c(cc32)OCO4)cc1 [Compound 15]
ΔTm/°C, stabilization of TTA45 by FRET (Table S2) ([5]; compounds 50 µM): 0.70 °C

Cc1ccc(-c2nnc3c4cc5c(cc4n(Cc4ccccc4)cc2-3)OCO5)cc1C [Compound 27]
ΔTm ([1]; 20 µM compound): 14.08 ± 2.11 °C
ΔTm/°C, TTA45 stabilization by FRET (Table S3) [5]: 14.08 ± 2.11 °C

COc1cccc(Cn2cc3c(-c4ccc5c(c4)OCO5)nnc-3c3cc4c(cc32)OCO4)c1 [Compound 30]
ΔTm ([1]; 20 µM compound): 13.40 ± 1.12 °C
ΔTm/°C, TTA45 stabilization by FRET (Table S3) [5]: 13.40 ± 1.12 °C

COc1ccc(Cn2cc3c(-c4ccc5c(c4)OCO5)nnc-3c3cc4c(cc32)OCO4)cc1OC [Compound 31]
ΔTm ([1]; 20 µM compound): 15.15 ± 0.23 °C
ΔTm/°C, TTA45 stabilization by FRET (Table S3) [5]: 15.15 ± 0.23 °C

Fc1ccc(-c2nnc3c4cc5c(cc4n(Cc4ccccc4F)cc2-3)OCCO5)cc1 [Compound 33]
ΔTm ([1]; 20 µM compound): 10.42 ± 1.60 °C
ΔTm/°C, TTA45 stabilization by FRET (Table S3) [5]: 10.42 ± 1.60 °C

CCOc1ccc(-c2nnc3c4cc5c(cc4[nH]cc2-3)OCCO5)cc1 [Compound 34]
ΔTm/°C, TTA45 stabilization by FRET (Table S3) [5]: 3.55 ± 1.20 °C

COc1ccc(-c2nn(-c3ccc(F)cc3)c3c2cnc2cc4c(cc23)OCO4)cc1 [Compound 37]
ΔTm/°C, TTA45 stabilization by FRET (Table S3) [5]: 2.19 ± 0.91 °C
stabilization of TTA45 (in words, SAR) [5]: negligible stabilization

Fc1ccc(-n2nc(-c3ccccc3)c3cnc4cc5c(cc4c32)OCO5)cc1 [Compound 38]
ΔTm/°C, TTA45 stabilization by FRET (Table S3) [5]: 0.30 ± 0.82 °C
stabilization of TTA45 (in words, SAR) [5]: negligible stabilization
